Here are results for 59 molecules from patent publication US20180009797A1, “AZA-ARYL 1H-PYRAZOL-1-YL BENZENE SULFONAMIDES” (ChemoCentryx, Inc., priority 2016, published 2018).

The target in this assay is T1, CCR(9) (Homo sapiens, UniProt P51686).
T1 construct: CCR(9)-expressing cells such as T cell line MOLT-4 cells; host or cells: MOLT-4 T cell line
T1 sequence (P51686 1-369): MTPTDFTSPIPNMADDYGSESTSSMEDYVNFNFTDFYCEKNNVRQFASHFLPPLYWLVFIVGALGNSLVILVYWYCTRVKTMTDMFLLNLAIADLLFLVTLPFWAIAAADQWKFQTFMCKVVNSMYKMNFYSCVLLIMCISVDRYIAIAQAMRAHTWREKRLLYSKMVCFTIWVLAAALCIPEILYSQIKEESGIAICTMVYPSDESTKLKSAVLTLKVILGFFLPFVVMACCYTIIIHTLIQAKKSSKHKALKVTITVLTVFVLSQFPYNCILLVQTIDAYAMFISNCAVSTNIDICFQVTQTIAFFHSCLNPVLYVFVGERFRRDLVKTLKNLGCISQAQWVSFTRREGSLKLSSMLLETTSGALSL
Briefly: serum chemotaxis (serum migration) assay, MOLT-4 cells in human serum, TECK. It is filed as cell-based. The conditions noted are these: read-out: A2. Here is the method: In vitro cell chemotaxis assays can be performed (but are not limited to this format) using the 96-well microchamber (called ChemoTX™). The ChemoTX™ system is well known to those skilled in the art as a type of chemotactic/cell migration instrument. In this assay, CCR(9)-expressing cells (such as MOLT-4) are first incubated with a compound of interest, such as a possible CCR(9) antagonist at increasing concentrations. Typically, fifty thousand cells per well are used, but the amount can range from 10^3-10^6 cells per well. The chemokine ligand (for example, CCR(9) ligand TECK, typically at 50 nM (but can range from 5-100 nM)), is placed at the lower chamber and the migration apparatus is assembled. Twenty microliters of test compound-treated cells are then placed onto the membrane. Migration is allowed to take place at 37° C. for a period of time, typically 2.5 hours for CCR(9). At the end of the incubation, the number of cells that migrated across the membrane into the lower chamber is then quantified. The efficacy of a compound as an inhibitor of chemokine-mediated cell migration can be calculated as an IC50 (the concentration needed to reduce cell migration by 50%) or IC90 (for 90% inhibition).
MOLT-4 cells were obtained from the American Type Culture Collection (Manassas, Va.) and cultured in RPMI tissue culture medium supplemented with 10% fetal calf serum (FCS) in a humidified 5% CO2 incubator at 37° C. Recombinant human chemokine proteins TECK was obtained from R&D Systems (Minneapolis, Minn.). ChemoTX® chemotaxis microchambers were purchased from Neuro Probe (Gaithersburg, Md.). CyQUANT® cell proliferation kits were purchased from Molecular Probes (Eugene, Oreg.). Calcium indicator dye Fluo-4 AM was purchased from Molecular Devices (Mountain View, Calif.).
A serum chemotaxis assay was used to determine the efficacy of potential receptor antagonists at blocking the migration mediated through chemokine receptors, such as CCR(9). This assay was performed using the ChemoTX® microchamber system with a 5-μm pore-sized polycarbonate membrane. MOLT-4 cells were collected by centrifugation at 400×g at room temperature, then suspended at 50 million/ml in human serum, containing 50 mM HEPES (final pH of 7.2). The compound being tested or an equivalent volume of its solvent (DMSO) was then added to the cell/serum mixture at a final DMSO concentration of 0.125% (v/v), and this mixture was then incubated together at 37° C. for one hour. Separately, recombinant human TECK was diluted with chemotaxis buffer (HBSS+0.1% BSA), generally spanning a range from 0.1 nM to 500 nM, after which 29 μl of diluted chemokine was placed in the lower wells of the ChemoTX® plate. The 5-μm (pore size) polycarbonate membrane was placed onto the plate, and 20 μL of the cell/compound mixture was transferred onto each well of the membrane. The plates were incubated at 37° C. for 90 minutes, after which the polycarbonate membranes were removed and 5 μl of the DNA-intercalating agent CyQUANT (Invitrogen, Carlsbad, Calif.) was added to the lower wells. The amount of fluorescence, corresponding to the number of migrated cells, was measured using a Spectrafluor Plus plate reader (TECAN, San Jose, Calif.).
The A2 values were calculated from the following equation, comparing the efficacy of the test compound with that of the DMSO-only control at equi-active chemokine levels:
Log(A2)=log [drug(M)]−log [(A′/A)−1]
where A reflects the potency of the agonist in the absence of antagonist and […] reflects the potency of the agonist in the presence of antagonist at a given concentration of drug ([drug(M)]).
As for `CC(C)(C)c1ccc(S(=O)(=O)Nc2cc(C(F)(F)F)nn2-c2cccc3ncccc23)cc1`, the EC50 was 501 to 2500 nM.
With `Cc1cc(NS(=O)(=O)c2ccc(OCC(C)C)cc2)n(-c2cccc3ncccc23)n1`, the EC50 was above 2500 nM.
The same measure for `Cc1cc(NS(=O)(=O)c2ccc(C(C)(C)C)cc2)n(-c2cccc3cnccc23)n1`: 501 to 2500 nM; for `Cc1ccc2c(-n3nc(C)cc3NS(=O)(=O)c3ccc(C(C)(C)C)cc3)cccc2n1`: below 500 nM.
In the case of `Cc1cc(NS(=O)(=O)c2ccc(C(C)C)cc2)n(-c2cccc3ncccc23)n1`, the EC50 was in the range of 501 to 2500 nM.
`Cc1cc(NS(=O)(=O)c2ccc(OC(F)(F)F)cc2)n(-c2cccc3ncccc23)n1`: the EC50 lay in the range of 501 to 2500 nM.
The same measure for `CCC(C)(C)c1ccc(S(=O)(=O)Nc2cc(C)nn2-c2cccc3ncccc23)cc1`: 501 to 2500 nM; for `CC(C)c1ccc(S(=O)(=O)Nc2cc(C(F)F)nn2-c2cccc3ncccc23)cc1`: 501 to 2500 nM; for `CC(C)(C)c1ccc(S(=O)(=O)Nc2cc(C#N)nn2-c2cccc3ncccc23)cc1`: 501 to 2500 nM.
Then `CC(C)(C)c1ccc(S(=O)(=O)Nc2cc(CF)nn2-c2cccc3ncccc23)cc1`, with below 500 nM; and `CC(C)(C)c1ccc(S(=O)(=O)Nc2ccnn2-c2cccc3ncccc23)cc1`, with above 2500 nM.
Consider `CC(C)Oc1ccc(S(=O)(=O)Nc2cc(CF)nn2-c2cccc3ncccc23)cc1`, for which the EC50 is 501 to 2500 nM.
The same measure for `Cc1cc(NS(=O)(=O)c2ccc(C(C)(C)C)cc2)n(-c2nccc3ccccc23)n1`: 501 to 2500 nM; for `COc1ccc(-n2nc(C)cc2NS(=O)(=O)c2ccc(C(C)(C)C)c(F)c2)c2cccnc12`: below 500 nM.
As to `Cc1cc(NS(=O)(=O)c2ccc(OC(C)C)cc2)n(-c2cccc3cnccc23)n1`, the EC50 lay in the range of 501 to 2500 nM.
The same measure for `CC(C)c1ccc(S(=O)(=O)Nc2cc(C(F)(F)F)nn2-c2cccc3cnccc23)cc1`: 501 to 2500 nM.
As to `CC(C)(C)c1ccc(S(=O)(=O)Nc2cc(C(F)F)nn2-c2cccc3ncccc23)cc1`, the EC50 is below 500 nM.
Regarding `CC(C)Oc1ccc(S(=O)(=O)Nc2cc(C(F)(F)F)nn2-c2cccc3cnccc23)cc1`, the EC50 was 501 to 2500 nM.
For `CC(C)Oc1ccc(S(=O)(=O)Nc2cc(C(F)F)nn2-c2cccc3ncccc23)cc1`, the EC50 was below 500 nM.
Consider `COCc1cc(NS(=O)(=O)c2ccc(C(C)(C)C)cc2)n(-c2cccc3ncccc23)n1`, for which the EC50 is below 500 nM.
Then `Cc1cc(NS(=O)(=O)c2ccc(C(C)(C)C)cc2)n(-c2ccc(Cl)c3ncccc23)n1`, with below 500 nM; and `Cc1cc(NS(=O)(=O)c2ccc(C(C)(C)C)cc2F)n(-c2cccc3ncccc23)n1`, with 501 to 2500 nM; and `Cc1cc(NS(=O)(=O)c2ccc(C(C)(C)C)cc2)n(-c2cccc3c(N)nccc23)n1`, with 501 to 2500 nM.
As to `Cc1cc(NS(=O)(=O)c2ccc(C(C)(C)C)cc2)n(-c2cccc3nc(N)ccc23)n1`, the EC50 is below 500 nM.
Then `Cc1cc(NS(=O)(=O)c2ccc(C(C)(C)C)cc2)n(-c2nncc3ccccc23)n1`, with 501 to 2500 nM.
Then `Cc1cc(NS(=O)(=O)c2ccc(C(C)(C)C)cc2)n(-c2ccnc3ccccc23)n1`, with 501 to 2500 nM.
Consider `Cc1cc(NS(=O)(=O)c2ccc(C(C)C)cc2)n(-c2cccc3cnccc23)n1`, for which the EC50 is 501 to 2500 nM.
Then `Cc1cc(NS(=O)(=O)c2ccc(C(C)(C)C)cc2)n(-c2cncc3ccccc23)n1`, with 501 to 2500 nM; and `CC(C)c1ccc(S(=O)(=O)Nc2cc(C(F)(F)F)nn2-c2cccc3ncccc23)cc1`, with 501 to 2500 nM.
The same measure for `Cc1cc(NS(=O)(=O)c2ccc(C(C)(C)C)cc2)n(-c2nccc3ncccc23)n1`: 501 to 2500 nM; for `CC(C)Oc1ccc(S(=O)(=O)Nc2cc(C(F)(F)F)nn2-c2cccc3ncccc23)cc1`: above 2500 nM.
Consider `Cc1cc(NS(=O)(=O)c2ccc(C(C)(C)C)cc2)n(-c2n[nH]c(=O)c3ccccc23)n1`, for which the EC50 was in the range of 501 to 2500 nM.
Then `Cc1cc(NS(=O)(=O)c2ccc(C(C)(C)C)cc2)n(-c2ccc(C)c3ncccc23)n1`, with 501 to 2500 nM; and `Cc1cc(NS(=O)(=O)c2ccc(C(C)(C)C)cc2)n(-c2cc(N)nc3ccccc23)n1`, with 501 to 2500 nM.
As for `COc1cnc(-n2nc(C)cc2NS(=O)(=O)c2ccc(C(C)(C)C)cc2)c2ccccc12`, the EC50 lay in the range of 501 to 2500 nM.
Then `Cc1cc(NS(=O)(=O)c2ccc(C(C)(C)C)cc2)n(-c2cnnc3ccccc23)n1`, with 501 to 2500 nM; and `Cc1cc(NS(=O)(=O)c2ccc(C(C)(C)C)cc2)n(-c2cnc(N)c3ccccc23)n1`, with 501 to 2500 nM; and `Cc1cc(NS(=O)(=O)c2ccc(C(C)(C)C)cc2)n(-c2ccnc3c(F)cccc23)n1`, with 501 to 2500 nM.
`Cc1cc(NS(=O)(=O)c2ccc(C(C)(C)C)c(F)c2)n(-c2cccc3ncccc23)n1`: the EC50 is below 500 nM.
The same measure for `Cc1cc(NS(=O)(=O)c2ccc(C(C)(C)C)cc2)n(-c2ncc(Cl)c3ccccc23)n1`: above 2500 nM.
On to `CC(C)(C)c1ccc(S(=O)(=O)Nc2cc(C(F)F)nn2-c2cccc3ncccc23)cc1F`, for which the EC50 lay in the range of 501 to 2500 nM.
Then `Cc1cc(-n2nc(C)cc2NS(=O)(=O)c2ccc(C(C)(C)C)cc2)c2ccccc2n1`, with 501 to 2500 nM.
Then `Cc1cc(NS(=O)(=O)c2ccc(C(C)(C)C)c(F)c2)n(-c2ccc(N)c3ncccc23)n1`, with 501 to 2500 nM.
The same measure for `Cc1cc(NS(=O)(=O)c2ccc(C(C)(C)C)cc2)n(-c2ccnc3cc(F)ccc23)n1`: 501 to 2500 nM; for `CC(C)(C)c1ccc(S(=O)(=O)Nc2cc(CF)nn2-c2cccc3ncccc23)cc1F`: below 500 nM.
Take `Cc1cc(NS(=O)(=O)c2ccc(C(C)(C)C)cc2)n(-c2cccc3c2ccc[n+]3[O-])n1`: the EC50 was in the range of 501 to 2500 nM.
In the case of `Cc1cc(NS(=O)(=O)c2ccc(C(C)(C)C)c(Cl)c2)n(-c2cccc3ncccc23)n1`, the EC50 was in the range of 501 to 2500 nM.
The same measure for `Cc1cc(NS(=O)(=O)c2ccc(C(C)(C)C)cc2)n(-c2cccc3c[n+]([O-])ccc23)n1`: above 2500 nM; for `Cc1cc(NS(=O)(=O)c2cc(F)c(C(C)(C)C)c(F)c2)n(-c2cccc3ncccc23)n1`: below 500 nM.
Then `CCOc1ccc(-n2nc(C)cc2NS(=O)(=O)c2ccc(C(C)(C)C)cc2)c2cccnc12`, with 501 to 2500 nM; and `Cc1cc(NS(=O)(=O)c2ccc(C(C)(C)C)cc2)n(-c2cccc3ncccc23)n1`, with below 500 nM; and `COc1ccc(-n2nc(C)cc2NS(=O)(=O)c2ccc(C(C)(C)C)cc2)c2cccnc12`, with below 500 nM.
The same measure for `Cc1cc(-n2nc(C)cc2NS(=O)(=O)c2ccc(C(C)(C)C)cc2)c2cccnc2c1`: 501 to 2500 nM; for `Cc1cc(NS(=O)(=O)c2ccc(C(C)(C)C)cc2)n(-c2ccc(Br)c3ncccc23)n1`: 501 to 2500 nM.
Take `Cc1cc(NS(=O)(=O)c2ccc(OC(C)C)c(F)c2)n(-c2cccc3ncccc23)n1`: the EC50 lay in the range of 501 to 2500 nM.
Consider `Cc1cc(NS(=O)(=O)c2ccc(C(C)(C)C)c(F)c2)n(-c2ccc(Br)c3ncccc23)n1`, for which the EC50 is below 500 nM.
Then `Cc1cc(NS(=O)(=O)c2ccc(C(C)(C)C)cc2)n(-c2ccc(N)c3ncccc23)n1`, with below 500 nM; and `Cc1cc(NS(=O)(=O)c2ccc(C(C)(C)C)c(F)c2)n(-c2ccc(C#N)c3ncccc23)n1`, with below 500 nM; and `Cc1cc(NS(=O)(=O)c2ccc(C(C)(C)C)cc2)n(-c2ccc(C#N)c3ncccc23)n1`, with 501 to 2500 nM.
